Laboratory results: patent publication US5466673A, “Method of inhibiting calcium precipitation in an intraocular irrigating solution” (Senju Pharmaceutical Co., Ltd., priority 1993, dated 1995)

System: blood-aqueous barrier of the eye
Assay: Effect of the present compound on the blood-aqueous barrier of the eye (anterior chamber irrigation, carboxy-fluorescein leakage)
Assay type: in vivo, White rabbits
Conditions: mean ± S.E.
Experimental: White rabbits weighing about 2.5 kg were used.
Physiological saline, 0.06, 0.6 and 6 mM solutions of DCE-GS in physiological saline, and a 0.3 mM solution of GSSG (oxidized glutathione)in physiological saline were used as intraocular irrigating solutions and their effects on the blood-aqueous barrier of the eye were evaluated.
Two 23 G needles connected to a polyethylene tube were gently inserted into the anterior chamber of the eye of rabbits under anesthesia (ketamine hydrochloride: xylazine hydrochloride=1:1) and 0.5 ml/kg of 1% carboxy-fluorescein was injected into the auricular vein immediately before irrigation. Using a syringe pump, the intraocular irrigating solution was infused at the rate of 1.5 ml/min. and 25 μl of the outflowing intraocular irrigating solution and the blood were respectively collected at 15-minute intervals over the period of 1 hour and the intensity of florescence of each sample was determined with a spectrophotofluorometer. The collected blood was mixed with 2.5 ml of physiological saline and the mixture was centrifuged at 3000 rpm to separate the supernatant for use as a sample.
The degree (4) of protein leakage was calculated by means of the following equation. (Intensity of fluorescence of irrigating solution/intensity of fluorescence of blood)×100 (%)

## N[C@@H](CCC(=O)N[C@@H](CSC(CC(=O)O)C(=O)O)C(=O)NCC(=O)O)C(=O)O (stereo partly drawn) [DCE-GS, S-(α,β-dicarboxyethyl) glutathione]
0.06 mM in physiological saline, irrigation 1.5 ml/min, time 15 min, n 7
  degree of protein leakage: 0.16 ± 0.02%
0.06 mM in physiological saline, time 30 min, n 7
  degree of protein leakage: 0.23 ± 0.05%
0.06 mM in physiological saline, time 45 min, n 7
  degree of protein leakage: 0.11 ± 0.05%
0.06 mM in physiological saline, time 60 min, n 7
  degree of protein leakage: 0.18 ± 0.03%
0.6 mM in physiological saline, time 15 min, n 8
  degree of protein leakage: 0.13 ± 0.01%
0.6 mM in physiological saline, time 30 min, n 8
  degree of protein leakage: 0.19 ± 0.02%
0.6 mM in physiological saline, time 45 min, n 8
  degree of protein leakage: 0.15 ± 0.02%
0.6 mM in physiological saline, time 60 min, n 8
  degree of protein leakage: 0.13 ± 0.02%
6 mM in physiological saline, time 15 min, n 5
  degree of protein leakage: 0.13 ± 0.02%
6 mM in physiological saline, time 30 min, n 5
  degree of protein leakage: 0.16 ± 0.02%
6 mM in physiological saline, time 45 min, n 5
  degree of protein leakage: 0.22 ± 0.04%
6 mM in physiological saline, time 60 min, n 5
  degree of protein leakage: 0.15 ± 0.02%

## oxidized glutathione [GSSG, reference compound]
0.3 mM in physiological saline, time 15 min, n 5
  degree of protein leakage: 0.22 ± 0.03%
0.3 mM in physiological saline, time 30 min, n 5
  degree of protein leakage: 0.17 ± 0.01%
0.3 mM in physiological saline, time 45 min, n 5
  degree of protein leakage: 0.15 ± 0.03%
0.3 mM in physiological saline, time 60 min, n 5
  degree of protein leakage: 0.15 ± 0.03%
